The values below come from PMC9916770, “Lycorine Carbamate Derivatives for Reversing P-glycoprotein-Mediated Multidrug Resistance in Human Colon Adenocarcinoma Cells” (International Journal of Molecular Sciences, 2023).

The test system of one assay is Colo205 cells. As to the kind of experiment: MTT antiproliferative assay, sensitive cells. Particulars: for IC50: Homo sapiens, COLO 205, sensitive Colo205, MTT, 72 h, mean ± SD. In kind it is cell-based, human. The method, then:
(§1) The human colon adenocarcinoma cell lines Colo205 doxorubicin-sensitive (CCL-222, ATCC, Manassas, VA, USA) and the resistant Colo320/MDR-LRP expressing P-gp were purchased from LGC Promochem (Teddington, UK). The MRC-5 human embryonal lung fibroblast cell line (CCL-171, ATCC) was purchased from Sigma-Aldrich (Merck KGaA, Darmstadt, Germany). The human colon adenocarcinoma cells (Colo205 and Colo320) were cultured in an RPMI 1640 medium supplemented with 10% fetal bovine serum (FBS), 2 mM L-glutamine, 1 mM Na-pyruvate, and 100 mM HEPES. The semi-adherent human colon cancer cells were detached with a trypsin-Versene (EDTA) solution for 5 min at 37 °C. The MRC-5 human embryonal lung fibroblast cells were cultured in EMEM containing 4.5 g/L of glucose and supplemented with a non-essential amino acid mixture, a selection of vitamins, and 10% FBS. The cell lines were incubated at 37 °C, 5% CO2, and 95% air atmosphere.
(§2) The antiproliferative effect of the compounds was tested in decreasing serial dilutions of compounds (starting with 100 µM, then two-fold serial dilution) on human cell lines (Colo205, Colo320, and MRC-5) in 96-well flat-bottomed microtiter plates. Firstly, the compounds were diluted in 100 µL of the medium, and then 6 × 10^3 cells (Colo205 and Colo320), in 100 µL of medium, were added to each well, excluding the medium control wells. The MRC-5 adherent cell line was seeded in the EMEM medium for at least 4 h before the assay. The two-fold serial dilutions of the compounds were made in a separate plate (100–0.19 μM) and then transferred to the plates containing the adherent corresponding cell line. Culture plates were incubated at 37 °C for 72 h, and at the end of the incubation period, 20 μL of MTT (thiazolyl blue tetrazolium bromide) solution (from a 5 mg/mL stock solution) was added to each well and incubated for an additional 4 h. Then, 100 μL of sodium dodecyl sulfate (SDS) solution (10% SDS in 0.01 M HCl) was added to each well, and the plates were further incubated at 37 °C overnight in a CO2 incubator. Cell growth was determined by measuring the optical density (OD) at 540/630 nm with a Multiscan EX ELISA reader (Thermo Labsystems, Cheshire, WA, USA). […] IC50 values and the standard deviation (SD) of triplicate experiments were calculated by using GraphPad Prism 5 software for Windows. Doxorubicin (2 mg/mL, Teva Pharmaceuticals, Budapest, Hungary) was used as a positive control and the vehicle DMSO as the negative control. (1) IC50=[ODsample−ODmedium control/ODcell control−ODmedium control]×100
(§3) The relative resistance (RR) was calculated as the ratio of the IC50 value in the resistant cancer cells and the IC50 in the sensitive cancer cell lines. The selectivity indexes (SI) were calculated as the ratio of the IC50 values in the non-tumor cells and the IC50 in the cancer cell lines. The activity of the compounds toward cancer cells is considered strongly selective if the selectivity index (SI) value is higher than 6, moderately selective if 3 < SI < 6, slightly selective if 1 < SI < 3, and non-selective if SI is lower than 1.
For orientation: Formazan colour is commonly taken as a measure of viable cells.

The next assay concerns Colo320 cells. As to the kind of experiment: MTT antiproliferative assay, resistant cells. In kind it is cell-based, human. Particulars: for IC50: Homo sapiens, COLO 320, resistant Colo320, MTT, 72 h, mean ± SD, read-out: IC50 Colo320 (B). The method, then: as §1, §2, §3
For another assay, the system named is MRC-5 cells. As to the kind of experiment: MTT antiproliferative assay, normal lung fibroblasts. The format is cell-based. The conditions noted are these: Homo sapiens, normal embryonal lung fibroblasts, 72 h, mean ± SD, read-out: IC50 MCR-5 (C). The method, then: as §1, §2, §3

The term IC50 denotes the concentration needed to halve the response being measured.

On to `O=C(OC1C=C2CCN3Cc4cc5c(cc4C(C1O)C23)OCO5)N1CCOCC1` (centres unmarked) [Compound 3, Lycorine 2-yl morpholine-4-carboxylate], for which the IC50 in the assay on Colo205 cells, in the assay on Colo320 cells and in the assay on MRC-5 cells was above 100 µM in each case.

As for `COc1ccc(CCNC(=O)OC2C=C3CCN4Cc5cc6c(cc5C(C2OC(=O)NCCc2ccc(OC)cc2)C34)OCO6)cc1` (centres unmarked) [Compound 4, Lycorine 1,2-diyl bis [(4-methoxyphenethyl)carbamate]], the IC50 with Colo205 cells, with Colo320 cells and in the assay with MRC-5 cells was above 100 µM in each case.

For the compound `Cc1ccc(CNC(=O)OC2C=C3CCN4Cc5cc6c(cc5C(C2O)C34)OCO6)cc1` (centres unmarked) [Compound 6, Lycorine 2-yl (4-methylbenzyl)carbamate], the IC50 with Colo205 cells, with Colo320 cells and in the assay with MRC-5 cells was above 100 µM throughout.

On to `O=C(NCc1ccc2c(c1)OCO2)OC1C=C2CCN3Cc4cc5c(cc4C(C1OC(=O)NCc1ccc4c(c1)OCO4)C23)OCO5` (centres unmarked) [Compound 7, Lycorine 1,2-diyl bis[(piperonyl)carbamate]], for which the IC50 in the assay on Colo205 cells, in the assay on Colo320 cells and with MRC-5 cells was above 100 µM each time.

Turning to `O=C(NCc1ccc2c(c1)OCO2)OC1C=C2CCN3Cc4cc5c(cc4C(C1O)C23)OCO5` (centres unmarked) [Compound 8, Lycorine 2-yl (piperonyl)carbamate], the 50% inhibitory concentration (IC50) with Colo205 cells, in the assay on Colo320 cells and with MRC-5 cells was above 100 µM in each case.

Regarding `O=C(NCCc1ccccc1)O[C@H]1C=C2CCN3Cc4cc5c(cc4[C@H]([C@@H]1O)[C@@H]23)OCO5` [Compound 10, lycorine 2-yl phenethylcarbamate], the IC50 with Colo205 cells, with Colo320 cells and with MRC-5 cells was above 100 µM throughout.

Take `COc1ccc(CNC(=O)OC2C=C3CCN4Cc5cc6c(cc5C(C2O)C34)OCO6)cc1` (centres unmarked) [Compound 11, Lycorine 2-yl (4-methoxylbenzyl)carbamate]: the IC50 in the assay with Colo205 cells, in the assay on Colo320 cells and in the assay on MRC-5 cells was above 100 µM each time.

Take `CN(Cc1ccccc1)C(=O)OC1C=C2CCN3Cc4cc5c(cc4C(C1O)C23)OCO5` (centres unmarked) [Compound 12, Lycorine 2-yl benzyl(methyl)carbamate]: the IC50 in the assay with Colo205 cells, in the assay with Colo320 cells and with MRC-5 cells was above 100 µM each time.

In the case of `O=C(OC1C=C2CCN3Cc4cc5c(cc4C(C1OC(=O)N1CCCC1)C23)OCO5)N1CCCC1` (centres unmarked) [Compound 14, Lycorine 1,2-diyl bis(pyrrolidine-1-carboxylate)], the IC50 in the assay with Colo205 cells, in the assay with Colo320 cells and in the assay with MRC-5 cells was above 100 µM in each case.

`O=C(OC1C=C2CCN3Cc4cc5c(cc4C(C1O)C23)OCO5)N1CCCC1` (centres unmarked) [Compound 15, Lycorine 2-yl pyrrolidine-1-carboxylate]: the IC50 with Colo205 cells, in the assay with Colo320 cells and with MRC-5 cells was above 100 µM in each case.

Regarding `O=C(OC1C=C2CCN3Cc4cc5c(cc4C(C1O)C23)OCO5)N1CCCCC1` (centres unmarked) [Compound 17, Lycorine 2-yl piperidine-1-carboxylate], the IC50 with Colo205 cells, in the assay with Colo320 cells and in the assay with MRC-5 cells was above 100 µM throughout.

As for `CC(C)(C)c1ccc(CNC(=O)OC2C=C3CCN4Cc5cc6c(cc5C(C2OC(=O)NCc2ccc(C(C)(C)C)cc2)C34)OCO6)cc1` (centres unmarked) [Compound 18, Lycorine 1,2-diyl bis[(4-(tert-butyl)benzyl)carbamate]], the IC50 in the assay on Colo205 cells, in the assay with Colo320 cells and in the assay with MRC-5 cells was above 100 µM in each case.

In the case of `O=C(NCc1ccccc1F)OC1C=C2CCN3Cc4cc5c(cc4C(C1OC(=O)NCc1ccccc1F)C23)OCO5` (centres unmarked) [Compound 20, Lycorine 1,2-diyl bis[(2-fluorobenzyl)carbamate]], the IC50 with Colo205 cells, with Colo320 cells and in the assay on MRC-5 cells was above 100 µM throughout.

As for `O=C(NCc1ccccc1F)OC1C=C2CCN3Cc4cc5c(cc4C(C1O)C23)OCO5` (centres unmarked) [Compound 21, Lycorine 2-yl (2-fluorobenzyl)carbamate], the IC50 in the assay on Colo205 cells, in the assay on Colo320 cells and in the assay on MRC-5 cells was above 100 µM throughout.

Consider `O=C(NCc1cccc(C(F)(F)F)c1)O[C@H]1[C@H]2c3cc4c(cc3CN3CCC(=C[C@@H]1OC(=O)NCc1cccc(C(F)(F)F)c1)[C@H]23)OCO4` [Compound 22, Lycorine 1,2-diyl bis[(3-(trifluoromethyl)benzyl)carbamate]], for which the IC50 with Colo205 cells, with Colo320 cells and with MRC-5 cells was above 100 µM throughout.

With `O=C(NCCc1ccc(F)cc1)OC1C=C2CCN3Cc4cc5c(cc4C(C1OC(=O)NCCc1ccc(F)cc1)C23)OCO5` (centres unmarked) [Compound 23, Lycorine 1,2-diyl bis[(4-fluorophenethyl) carbamate]], the IC50 was above 100 µM in the assay on Colo205 cells, above 100 µM in the assay with Colo320 cells and 3.79 ± 0.21 µM in the assay with MRC-5 cells. For the same compound, the “SI (selectivity index) C/A” value in the assay on Colo205 cells (IC50 MRC-5 / IC50 Colo205) is on record as below 0.037. In addition, in the assay on Colo320 cells (IC50 MRC-5 / IC50 Colo320), the “SI (selectivity index) C/B” value was below 0.037.

Take `O=C(NCCc1ccc(F)cc1)OC1C=C2CCN3Cc4cc5c(cc4C(C1O)C23)OCO5` (centres unmarked) [Compound 24, Lycorine 2-yl (4-fluorophenethyl)carbamate]: the IC50 with Colo205 cells, in the assay on Colo320 cells and in the assay on MRC-5 cells was above 100 µM each time.

Regarding `O=C(NCc1ccc(F)cc1)OC1C=C2CCN3Cc4cc5c(cc4C(C1OC(=O)NCc1ccc(F)cc1)C23)OCO5` (centres unmarked) [Compound 27, Lycorine 1,2-diyl bis[(4-fluorobenzyl)carbamate]], the IC50 with Colo205 cells, with Colo320 cells and with MRC-5 cells was above 100 µM throughout.

Regarding `O=C(NCc1ccc(F)cc1)OC1C=C2CCN3Cc4cc5c(cc4C(C1O)C23)OCO5` (centres unmarked) [Compound 28, Lycorine 2-yl (4-fluorobenzyl)carbamate], the IC50 with Colo205 cells, with Colo320 cells and in the assay with MRC-5 cells was above 100 µM throughout.

For the compound `CCCNC(=O)OC1C=C2CCN3Cc4cc5c(cc4C(C1OC(=O)NCCC)C23)OCO5` (centres unmarked) [Compound 29, Lycorine 1,2-diyl bis(propylcarbamate)], the IC50 in the assay on Colo205 cells, in the assay with Colo320 cells and in the assay with MRC-5 cells was above 100 µM throughout.

For the compound `CCCNC(=O)OC1C=C2CCN3Cc4cc5c(cc4C(C1O)C23)OCO5` (centres unmarked) [Compound 30, Lycorine 2-yl propylcarbamate], the IC50 in the assay with Colo205 cells, in the assay on Colo320 cells and in the assay on MRC-5 cells was above 100 µM throughout.

For `O=C(NCc1ccccc1)OC1C=C2CCN3Cc4cc5c(cc4C(C1OC(=O)NCc1ccccc1)C23)OCO5` (centres unmarked) [Compound 32, Lycorine 1,2-diyl bis(benzylcarbamate)], the IC50 is above 100 µM in the assay on Colo205 cells, above 100 µM in the assay on Colo320 cells and 71.9 ± 5.38 µM in the assay on MRC-5 cells.
